Data set [1] concerns the target human dopamine D2 receptor (Homo sapiens, UniProt P14416). The following applies: cited from earlier work.

Broadly, the melting point is the temperature of the solid-liquid transition.

Structures are written as SMILES.

Sequence of human dopamine D2 receptor (P14416 whole entry): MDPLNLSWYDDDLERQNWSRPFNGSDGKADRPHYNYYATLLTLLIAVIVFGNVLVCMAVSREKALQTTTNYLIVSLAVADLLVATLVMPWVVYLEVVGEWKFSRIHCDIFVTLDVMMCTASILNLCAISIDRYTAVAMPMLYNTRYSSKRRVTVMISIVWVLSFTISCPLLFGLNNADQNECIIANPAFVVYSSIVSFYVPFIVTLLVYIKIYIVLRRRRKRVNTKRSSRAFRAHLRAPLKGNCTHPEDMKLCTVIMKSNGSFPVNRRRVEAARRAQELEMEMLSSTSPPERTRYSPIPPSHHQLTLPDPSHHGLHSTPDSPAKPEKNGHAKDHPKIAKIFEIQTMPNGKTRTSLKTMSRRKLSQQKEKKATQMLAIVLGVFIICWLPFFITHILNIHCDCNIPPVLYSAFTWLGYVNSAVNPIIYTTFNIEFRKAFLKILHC

With `COc1cccc(C(O)C2CCN(CCc3ccc(F)cc3)CC2)c1OC` (stereo not drawn) [MDL-100,907, (+)-α-(2,3-dimethoxyphenyl)-1-[2-(4-fluorophenyl)ethyl]-4-piperidinemethanol], the “activity at the human dopamine D2 receptor” value in data set [1] is “essentially devoid of activity”.

For `O=S(=O)(c1ccc(Cn2cnnn2)cc1)C1CCN(CCc2ccc(F)cc2F)CC1` [Example 12, 1-[2-(2,4-Difluorophenyl)ethyl]-4-[4-(tetrazol-1-ylmethyl)phenylsulphonyl]piperidine], the melting point is 168 to 169 °C.

Values taken from patent publication US6559166B1, “Phenylsulphonyl derivatives as 5-HT receptor ligands” (Merck Sharp & Dohme Ltd., priority 1999, dated 2003).
